US10561638B2, “Methods for treating dependence” (Biotie Therapies, Inc., priority 2007, dated 2020)

How the values were obtained:
CD-1 (ICR) mice = assay: Locomotor activity in mice, intraperitoneal; type: in vivo; details: i.p.; nepicastat 3-100, SKF-102698 30 and 100, cocaine 30 mg/kg
Description: Adult male CD-1 (ICR) mice (30-40 g on study day) were housed in groups of eight under a normal light/dark cycle with lights on between 0900 hr and 2100 hr. Food and water were allowed ad libitum. All animals were naive to drug treatment and behavioral testing. Each animal was only used once.
Locomotor activity was monitored in an automated 14 station activity monitoring system (San Diego Instrument Co.). Each station consisted of a clear perspex cage (25 cm×45 cm×20 cm; w×1×h) placed within a metal frame containing 3 photoemmitors and 3 photodetectors spaced equally along the length of the wall. The bottom of each cage was lightly covered in clean cedar bedding.
The mice were placed in the testing room at least 1 hr prior to testing. The mice were placed individually into one of the activity cages and allowed to explore for 30 min. […] Following a 60 minute pre-treatment period, motor activity was monitored for 180 minutes. Activity counts and ambulations (defined as a break of 2 consecutive photobeams) for each animal were recorded every 30 minutes.
A repeated measures two-way analysis of variance (ANOVA) was performed using the overall ranked data (nonparametric technique) to test for the overall effects of treatment, time interval and treatment by time interval interaction. […]

[1] = in vivo; cited from earlier work
[2] = test system: brain dopamine/norepinephrine ratio; assay: Dopamine/norepinephrine ratios in the brain of rodents; details: in vivo
Procedure: Dopamine/norepinephrine ratios in the brain of rodents treated with nepicastat were determined. Dopamine/norepinephrine ratios increased in the brains of rodents treated with nepicastat or disulfuram.

[3] = cited from earlier work

SMILES | total activity counts and ambulations vs vehicle (CD-1 (ICR) mice) | elimination half-life [1] | dopamine/norepinephrine ratios in the brain [2] | cocaine use vs placebo ([3]; disulfuram 250 mg per day) | elevations in plasma cocaine levels ([3]; intranasal cocaine during disulfuram treatment, one controlled study)
COC(=O)[C@H]1[C@@H](OC(=O)c2ccccc2)C[C@@H]2CC[C@H]1N2C.Cl [cocaine, cocaine hydrochloride] | significantly greater total activity counts | about 90 min | – | – | –
CCN(CC)C(=S)SSC(=S)N(CC)CC [disulfuram] | – | – | increased | reduced cocaine use compared to placebo | Six-fold elevations
